Experimental data reported in patent US20070060573A1, “Acyltryptophanols” (priority 2005, published 2007).

Biological target: T1, human FSH receptor (Homo sapiens, UniProt P23945)
T1 construct: expressed in transfected cells; host or cells: CHO cells (hFSHR clone 16)
T1 sequence (P23945 18-695): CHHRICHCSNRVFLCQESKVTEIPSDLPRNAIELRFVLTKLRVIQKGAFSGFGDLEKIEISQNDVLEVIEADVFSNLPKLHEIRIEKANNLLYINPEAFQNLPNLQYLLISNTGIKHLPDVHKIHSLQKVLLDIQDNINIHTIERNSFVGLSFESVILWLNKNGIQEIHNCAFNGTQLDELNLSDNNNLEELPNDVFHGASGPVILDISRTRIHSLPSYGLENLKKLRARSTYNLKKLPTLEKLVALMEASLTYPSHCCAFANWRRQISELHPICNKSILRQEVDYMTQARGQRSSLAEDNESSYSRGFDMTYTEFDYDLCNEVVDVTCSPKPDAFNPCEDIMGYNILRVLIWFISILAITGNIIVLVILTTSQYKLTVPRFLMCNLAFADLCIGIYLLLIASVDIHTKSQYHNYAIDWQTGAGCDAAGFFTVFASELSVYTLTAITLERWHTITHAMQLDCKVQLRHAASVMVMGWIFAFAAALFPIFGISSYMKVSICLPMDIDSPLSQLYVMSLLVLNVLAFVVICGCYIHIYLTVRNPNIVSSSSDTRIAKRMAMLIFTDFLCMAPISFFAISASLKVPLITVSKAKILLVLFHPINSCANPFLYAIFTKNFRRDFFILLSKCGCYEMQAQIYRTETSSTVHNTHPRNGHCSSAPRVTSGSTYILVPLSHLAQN
Experiment: HTRF assay for measuring cAMP in cells, FSH-antagonistic effect (in the presence of hFSH)
Type: cell-based
Conditions: hFSHR clone 16 cells (CHO cells stably transfected with the human FSH receptor), in the presence of 1e-9 mol/l hFSH, 37° C. for 2 h
Source text: […]

For O=C(N[C@@H](CO)Cc1c[nH]c2ccccc12)c1cc(-c2ccc3c(c2)OCO3)ccc1OC1CCCC1 [Example 418, 5-Benzo[1,3]dioxol-5-yl-2-cyclopentyloxy-N-[(R)-1-hydroxymethyl-2-(1H-indol-3-yl)ethyl]benzamide], the IC50 was 0.3 µM.
For COc1ccc(-c2ccc(OC)c(C(=O)N[C@@H](CO)Cc3c[nH]c4ccccc34)c2)cc1F [Example 307, 3′-Fluoro-4,4′-dimethoxybiphenyl-3-carboxylic acid [(R)-2-hydroxy-1-(1H-indol-3-ylmethyl)ethyl]amide], the IC50 was 0.45 µM.
CCOc1ccc(-c2ccc(S(=O)(=O)CC)cc2)cc1C(=O)N[C@@H](CO)Cc1c[nH]c2ccccc12 [Example 483, 4-Ethanesulphonyl-4-ethoxybiphenyl-3-carboxylic [(R)-2-hydroxy-1-(1H-indol-3-ylmethyl)ethyl]amide] showed an IC50 of 1 µM.
Work on CCOc1ccc(-c2cccc(-c3ccccc3)c2)cc1C(=O)NC(CO)Cc1c[nH]c2ccccc12 (stereo not drawn) [Example 430, 4-Ethoxy-[1,1′; 3′,1″]terphenyl-3-carboxylic acid [1-hydroxymethyl-2-(1H-indol-3-yl)ethyl]amide] yielded an IC50 of 0.4 µM.
With Cc1nc(C)c(-c2cc(C(=O)N[C@@H](CO)Cc3c[nH]c4ccccc34)c3cc(Br)ccc3n2)s1 [Example 108, 6-Bromo-2-(2,4-dimethyl-thiazol-5-yl)quinoline-4-carboxylic acid [(R)-2-hydroxy-1-(1H-indol-3-ylmethyl)ethyl]amide] the IC50 was 3 µM.
With COc1ccc2nc(-c3ccc(OC)c(OC)c3OC)cc(C(=O)N[C@@H](CO)Cc3c[nH]c4ccccc34)c2c1 [Example 16, N-[(R)-1-(Hydroxymethyl)-2-(1H-indol-3-yl)ethyl]-6-methoxy-2-(2,3,4-trimethoxyphenyl)quinoline-4-carboxamide] the IC50 was 4 µM.
Work on COCCCc1ccc2nc(-c3cc(OC)c(OC)c(OC)c3)cc(C(=O)N[C@@H](CO)Cc3c[nH]c4ccccc34)c2c1 [Example 392, 6-(3-Methoxypropyl)-2-(3,4,5-trimethoxyphenyl) quinoline-4-carboxylic acid [(R)-1-hydroxy-methyl-2-(1H-indol-3-yl)ethyl]amide] yielded an IC50 of 1.5 µM.
Compound COc1cc(-c2cc(C(=O)N[C@@H](CO)Cc3c[nH]c4ccccc34)c3cc([N+](=O)[O-])ccc3n2)cc(OC)c1OC [Example 19, N-[(R)-1-(Hydroxymethyl)-2-(1H-indol-3-yl)ethyl]-6-nitro-2-(3,4,5-trimethoxyphenyl)quinoline-4-carboxamide] has an IC50 of 6 µM.
Compound COc1cc(-c2cc(C(=O)NC(CO)Cc3c[nH]c4ccc(Br)cc34)c3ccccc3n2)cc(OC)c1OC (racemic) [Example 1, N-[(R,S)-2-(5-Bromo-1H-indol-3-yl)-1-(hydroxymethyl)ethyl]-2-(3,4,5-trimethoxyphenyl)quinoline-4-carboxamide] has an IC50 of 7 µM.
COc1ccc(OC)c(-c2cccc(C(=O)N[C@@H](CO)Cc3c[nH]c4ccccc34)c2)c1 [Example 87, N-[(R)-1-(Hydroxymethyl)-2-(1H-indol-3-yl)ethyl]-2′,5′-dimethoxy-[1,1′-biphenyl]-3-carboxamide] was tested, and the IC50 was 10 µM.
With COc1ccc2nc(-c3cc(OC)c(OC)c(OC)c3)cc(C(=O)N[C@H](Cc3c[nH]c4ccccc34)C(C)(C)O)c2c1 [Example 373, 6-Methoxy-2-(3,4,5-trimethoxyphenyl)quinoline-4-carboxylic acid [(R)-2-hydroxy-1-(1H-indol-3-ylmethyl)-2-methylpropyl]amide] the IC50 was 8 µM.
Work on CCn1cc(C[C@H](CO)NC(=O)c2cc(-c3cc(F)c(OC)c(F)c3)nc3ccc(OC)cc23)c2ccccc21 [Example 337] yielded an IC50 of 3.5 µM.
